The values that follow come from patent US9133236B2, “Connective tissue stimulating peptides” (priority 2002, dated 2015).

Where no end group is shown, it is not given here. [ ]: non-standard residue; d: D form. Hyp = O=C(O)[C@@H]1C[C@@H](O)CN1

Test [1] relates to rat calvaria derived osteoblasts. Kind of test: Cell bound alkaline phosphatase, calvaria derived osteoblasts. The format is cell-based. As to conditions: rat calvaria cultures (RC); 10 μg/ml to 100 μg/ml; 48 hr exposure. Here is the method:
(§1) BCSP1 was tested in three assays to understand the mechanism of bone stimulation by the peptide. Dose ranges in the microgram range were used to generate dose response curves. All assays used primary rat osteoblast cultures from bone marrow or calvaria.
(§2) Osteoblast proliferation was accessed using a DNA based assay which measures bromodeoxyuridine (BrdU) incorporation. Differentiation of osteoblasts was determined using the mid to late stage bone marker Alkaline Phosphatase. Late stage differentiation and mineralization was determined using a Bone Nodule formation assay (calvaria only).
(§3) Cell bound alkaline phosphatase from cell lysates of rat bone marrow derived osteoblasts and rat calvaria derived osteoblasts. BCSP1 was provided at a dose range of 100 μg/ml to 1 μg/mL. Cells were cultured for 3 days prior to a 48 hr exposure to the peptide.

Test [2] deals with osteoblast cultures derived from rat bone marrow. Kind of test: Osteoblast proliferation, BrdU incorporation, bone marrow derived cultures. Format: cell-based. As to conditions: 24 hr exposure. As for the experimental part: as §1, §2
Cells were cultured for four days prior to a 24 hr exposure to the peptide (FIG. 11).
On the technique in general: Incorporation of labelled thymidine or its analogues reports DNA synthesis.

A further test deals with tibia. In words: Periosteal tibia injection, DEXA bone mineral density and content. The format is in vivo, male Wistar rats. As to conditions: 7 days post injection; for changes in BMC (bone mineral content) / changes in BMD (bone mineral density): treated whole tibia in all regions, DEXA, SKELITE powder carrier. As for the experimental part:
BCSP1 peptide and BCSP4 peptide were tested at four dose levels, 0.05, 0.5, 1.0 & 5.0 mg/rat or vehicle, n=6 per dose. Sixty male Wistar rats, weighing 90-110 grams, were randomized into two groups, ear tagged and left undisturbed for 1 week prior to the procedure. Food and water are administered ad libitum. Animals weighed 150-190 grams at time of injection. Group 1 received injections of BCSP4 peptide on day 8 of acclimation. Group 2 received injections of BCSP1 peptide on day 9 of acclimation. Dissections were conducted on respective days, 7 days post injection.
The peptides were dissolved in sterile water at 0.05-5 mgs per 100 microliter volume, added to 0.5 mg of a dry synthetic biomaterial compound (SKELITE™) powder and lyophilized onto the carrier. Samples are resuspended in 100 microliters of sterile saline for injection. Delivery of the test compound was made under a general anaesthetic of Isofluorane with oxygen. Using a 0.5 cc insulin syringe fitted with a 28G1/2″ needle, the peptides were deposited onto the periosteal surface of the right medial tibia surface proximal to the knee under the Tibialis cranialis muscle group. Control animals are injected with saline vehicle and a synthetic biomaterial compound (SKELITE™) carrier.
Animals were euthanized with carbon dioxide and dissected to remove the treated right tibia and contra-lateral control limb, 7 days post injection. Muscle and soft connective tissue is dissected away prior to fixation in 70% ethanol.
Each tibia set was scanned as a pair for bone mineral density (BMD) and bone mineral content (BMC) on a Norland Eclipse DEXA scanner in small subject mode. Percent increases in local BMD (FIG. 5) were calculated against the untreated contra-lateral limb. […] This increase in physical size reduces the overall percentage increase in BMD (BMD=BMC/cm^2). Each tibia was analyzed in 3 contiguous regions, proximal, medial and distal as well as whole tibia measurements. Comparisons and statistical assessment of dose versus vehicle were conducted for each peptide for bone forming activity using a standard student t-test.

Another test concerns bovine chondrocytes. Kind of test: [3H] thymidine incorporation assay, bovine primary chondrocyte cultures. Format: cell-based. As for the experimental part:
(§4) BCSP1 was tested in vitro to determine effect on bovine and human primary chondrocyte cultures using a [3H] thymidine incorporation assay. Cells were seeded at […] for human chondrocytes (96 well plate) and allowed to attach for 48 h (medium containing 10% fetal bovine serum (FBS). Pre-confluent cells were then treated in quaduplicate with BCSP1 (0, 10, 20 and 40 ng/ml for 48 hrs and with [3H]thymidine ([…]) for the last 24 hrs (medium containing 2% FBS). The culture medium used was Dulbecco's Modified Eagle Medium (DMEM) (Gibco, Cat. #23800) containing 200 units/ml Penicillin, 200 ug/ml Streptomycin and 10% FBS for growth and 2% FBS for dosing.

The next test relates to human chondrocytes. Kind of test: [3H] thymidine incorporation assay, human primary chondrocyte cultures. The format is cell-based. Here is the method: as §4
Test [3] has as its system osteoblast cultures derived from rat calvaria. Kind of test: Osteoblast proliferation, BrdU incorporation, calvaria derived cultures. As to conditions: dose range of 1.3-6.4 ng/ml; 24 hr exposure. Format: cell-based. As for the experimental part: as §1, §2
Cells were cultured for four days prior to a 24 hr exposure to the peptide at a dose range from 100 μg/ml to 1.3 ng/ml of peptide (FIG. 12).

Test [4] has as its system rat bone marrow derived osteoblasts. In words: Cell bound alkaline phosphatase, bone marrow derived osteoblasts. Format: cell-based. As for the experimental part: as §1, §2, §3
The test system of the next test is rat calvaria cultures. In words: Bone nodule formation assay, alizarin red staining. Format: cell-based. As to conditions: 10 days. Here is the method:
as §1, §2
Rat calvaria cultures were maintained for 10 days in the presence of BCSP1 at a dose range of 1 ng/ml to 100 μg/ml with dosing provided at each fluid change. Mineralized bone nodules were detected by staining with alizarin red. Image analysis was conducted with an Alpha Imager 2000™ to count and quantify nodule area. […] Increased alkaline phosphatase would lead to increases in total mineralized area.

In the case of “NGLPGPIGP* (NGLPGPIG[Hyp]) [BCSP1, P* is hydroxyproline]”, the “alkaline phosphatase over control (vehicle)” value in test [1] was “dose dependent response”; in test [4] (rat bone marrow cultures (RBM), 1 μg/ml to 100 μg/ml, 48 hr exposure) it was “dose dependent response”. Moreover, the “increase in DNA synthesis” value in test [2] (rat bone marrow osteoblasts, up to 100 μg/ml) was not above 75%. For the same substance, the osteoblast proliferation result was “dose response increase” in test [2] (to 100 μg/ml) and “statistically significant increase” in test [3]. For the same substance, the bone size entry in the test on tibia (treated tibia) was “increase in bone size”. For the same substance, the “proliferation of chondrocyte cells” value in the test with bovine chondrocytes (10, 20 and 40 ng/ml, 48 hrs) is on record as “dose dependent increase”; with human chondrocytes (10, 20 and 40 ng/ml, 48 hrs) it was “dose dependent increase”. Moreover, the effect on proliferation result with bovine chondrocytes (doses in the nanogram range) and with human chondrocytes (doses in the nanogram range) was “up to 3 fold” in each case. The “specific activity of alkaline phosphatase” value in test [4] (further experimentation, not shown, culture not specified) was “increase in specific activity”. In addition, the “number of bone nodules formed” value was “slight increase” in the test with rat calvaria cultures (1 ng/ml and 10 ng/ml range); “minimal changes” in the test on rat calvaria cultures (1 ng/ml to 100 μg/ml). Further, the “total mineralized bone nodule area (size of nodules)” value with rat calvaria cultures (1 ng/ml to 100 μg/ml, dose dependent) is given as “significantly increased”.

In the case of PGPIGP [BCSP9], in the test with tibia, the “changes in BMC (bone mineral content)” value is “Significant changes” and the “changes in BMD (bone mineral density)” value was “Significant changes”.

Regarding PGPIG [BCSP7], in the test on tibia, the “changes in BMC (bone mineral content)” value is on record as “Significant changes” and the “changes in BMD (bone mineral density)” value is reported as “Significant changes”.

On to PGPIGPPGPR [BCSP10], for which, in the test on tibia, the “changes in BMC (bone mineral content)” value is “Significant changes” and the “changes in BMD (bone mineral density)” value is “Significant changes”.
